From the supplement of paper PMC10307832

How the values were obtained:
Test in all cases: relative viability (nuclei count vs DMSO), 5 days (fraction); higher = more cells survive
BI-2536 + Pemetrexed = compound: CC[C@@H]1C(=O)N(C)c2cnc(Nc3ccc(C(=O)NC4CCN(C)CC4)cc3OC)nc2N1C1CCCC1 [BI-2536] + Nc1nc2[nH]cc(CCc3ccc(C(=O)N[C@@H](CCC(=O)O)C(=O)O)cc3)c2c(=O)[nH]1 [Pemetrexed] (partner 0.2 µM)
Summary of the method: (§1)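 Relative viability was taken as the ratio of nuclei in treated wells to nuclei in vehicle wells. Lung cancer cell lines in 1536-well plates received compounds by pin tool one day after seeding, either one drug alone or a fixed anchor-drug dose plus five library-drug doses (not always all listed) in √10 steps. Nuclei were counted on 4× images after 5 days of treatment, and values are medians of duplicate plates.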

[1] = compound: CC1CC(=O)N(C2=CN=C(N=C2N1C3CCCC3)NC4=C(C=C(C=C4)C(=O)NC5CCN(CC5)C)OC)C [NPK76-II-72-1] + Cc1nc(NC(=O)N2CCC[C@H]2C(N)=O)sc1-c1ccnc(C(C)(C)C(F)(F)F)c1 [Alpelisib] (partner 2 µM)
Summary of the method: as §1

BI-2536 = compound: CC[C@@H]1C(=O)N(C)c2cnc(Nc3ccc(C(=O)NC4CCN(C)CC4)cc3OC)nc2N1C1CCCC1 [BI-2536]
Summary of the method: (§2)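 Lung cancer cell lines in 1536-well plates were exposed by pinning to five library-drug doses (not always all listed) √10 apart, following an overnight hold at 37 °C. MetaXpress counted Hoechst-stained nuclei from 4× images taken after 5 days without medium change. Viability is the median ratio of treated-well to vehicle-well nuclei across plates. Plates required control CV below 25% and at least one doubling.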

NPK76-II-72-1 = compound: CC1CC(=O)N(C2=CN=C(N=C2N1C3CCCC3)NC4=C(C=C(C=C4)C(=O)NC5CCN(CC5)C)OC)C [NPK76-II-72-1]
Summary of the method: as §2

Cell Line	relative viability (BI-2536 + Pemetrexed; first compound 0.01 µM)	relative viability (BI-2536 + Pemetrexed; first compound 0.03162 µM)	relative viability (BI-2536 + Pemetrexed; first compound 0.1 µM)	relative viability (BI-2536 + Pemetrexed; first compound 0.3162 µM)	relative viability (BI-2536 + Pemetrexed; first compound 1 µM)	relative viability ([1]; first compound 0.01 µM)	relative viability ([1]; first compound 0.03162 µM)	relative viability ([1]; first compound 0.1 µM)	relative viability ([1]; first compound 0.3162 µM)	relative viability ([1]; first compound 1 µM)	relative viability (BI-2536; 0.01 µM)	relative viability (BI-2536; 0.03162 µM)	relative viability (BI-2536; 0.1 µM)	relative viability (BI-2536; 0.3162 µM)	relative viability (BI-2536; 1 µM)	relative viability (NPK76-II-72-1; 0.01 µM)	relative viability (NPK76-II-72-1; 0.03162 µM)	relative viability (NPK76-II-72-1; 0.1 µM)	relative viability (NPK76-II-72-1; 0.3162 µM)	relative viability (NPK76-II-72-1; 1 µM)
NCI-H2126	0.747	0.74	0.369	0.286	0.217	0.759	0.81	0.752	0.71	0.734	1.02	0.991	0.656	0.314	0.245	0.966	1.06	0.999	0.996	1.09
SW 1573	0.753	0.516	0.149	0.124	0.0813	0.7	0.891	0.7	0.764	0.819	1.05	0.921	0.487	0.131	0.134	0.902	1	0.988	0.956	0.969
NCI-H358	0.191	0.178	0.194	0.0986	0.102	0.876	0.827	0.884	0.508	1.01	0.981	0.744	0.204	0.118	0.136	0.9	0.976	1.01		1.05
EPLC-272H	0.294	0.173	0.0902	0.106	0.0725	0.854	0.88	0.964	0.928	0.88	0.852	0.707	0.117	0.26	0.0971	0.96	0.951	1.06	0.86	1.07
PC-3 [JPC-3]	1.23	1.04	0.319	0.299	0.24	1.01	0.949	0.987	0.985	1.09	1.07	0.99	0.751	0.281	0.282	1.02	1.11	0.945	1.08	1.07
NCI-H650	0.912	1.11	0.551	0.196	0.139	1.15	1.23	0.952		1.13	0.819	0.821	0.589	0.198	0.131	0.971	0.946	0.927	0.734	1.01
NCI-H838	0.241	0.239	0.183	0.12	0.119	0.974	0.942	0.972	0.948	1.02	0.99	0.946	0.826	0.164	0.162	0.912	1.03	0.954	0.959	1.02
COR-L 105	0.986	1.13	1.01	0.384	0.362	0.908	0.907	1.13	0.905	1.13	0.904	0.909	0.665	0.252	0.343	0.976	0.932	0.977	0.878	0.965
NCI-H2405	1.07	0.992	0.375	0.342	0.457	0.654	0.853	0.753	0.744	0.921	0.965	0.918	0.465	0.279	0.406	0.986	0.991	1.03	1.01	1.05
NCI-H1395	0.73	0.643	0.34	0.323	0.402	1.02	0.994	0.979	1.17	1.03	0.844	0.817	0.435	0.337	0.34	0.893	0.906	0.953	0.955	0.993
NCI-H661	0.936	0.61	0.449	0.293	0.289	0.609	0.665	0.886	0.451	0.797	1.02	0.95	0.503	0.327	0.334	0.966	1.01	0.97	0.794	1.01
NCI-H1915	0.507	0.427	0.347	0.147	0.0852	1.07	1.06	1.05	1.01	1.1	0.977	0.932	0.544	0.0978	0.117	0.984	1.1	1	0.882	0.996
CAL-12T	1.04	0.955	0.623	0.195	0.131	1.13	1.15	0.877	1.03	1.27	0.882	0.849	0.718	0.159	0.198	0.933	1.02	1.01	0.927	1.15
LXF-289	0.932	0.812	0.503	0.0709	0.0711	0.987	1.07	1.05	1.01	1.05	1.04	0.977	0.651	0.0735	0.0855	0.954	1.02	0.968	1.04	0.988
NCI-H460	0.0637	0.0517	0.0606	0.0204	0.0163	0.469	0.541	0.478	0.442	0.497	1.05	1.03	0.552	0.0431	0.0258	0.98	1.04	1.02	0.983	0.992
NCI-H1944	0.631	0.649	0.425	0.18	0.142	0.801	0.81	0.871	0.715	0.928	0.902	1.07	0.649	0.203	0.194	0.931	0.974	0.92	0.921	1.08
NCI-H2009	1.07	1	0.674	0.223	0.274	1.19	1.25	1.02	1.14	1.15	0.959	0.918	0.579	0.198	0.209	0.98	1.05	1	0.933	1.1
201T	0.362	0.302	0.298	0.208	0.224	1.02	1.04	1.02	0.999	1.09	0.996	0.987	0.977	0.391	0.255	0.973	1	0.958	0.988	1.03
NCI-H23	0.619	0.756	0.201	0.128	0.182	0.759	0.871		0.657	0.804	0.926	0.797	0.179	0.141	0.17	0.944	1.06	0.854	0.957	1.11
LOU-NH91	0.38	0.39	0.284	0.26	0.336	0.682	0.72	0.719	0.563	0.814	1.03	0.924	0.824	0.319	0.271	0.952	0.991	0.876	0.793	1.09
NCI-H2085	0.961	1.01	0.664	0.172	0.243	0.889	0.946	0.932	0.899	1	1.01	0.976	0.798	0.222	0.333	0.921	1.02	0.961	0.952	1
COR-L23	0.216	0.206	0.178	0.144	0.133	0.638	0.821	0.815	0.815	0.822	1.09	1.13	0.333	0.136	0.135	0.977	1.06	0.998	1.01	1.01
BEN	0.676	0.83	0.447	0.325	0.422	0.967	1.05	1.01	1.02	1.09	0.948	0.982	0.671	0.386	0.355	0.941	0.928	0.903	0.904	0.996
LK-2	0.249	0.249	0.0925	0.0896	0.1	1	1.23	1.12		0.652	0.832	0.887	0.623	0.128	0.207	0.961	0.912	0.962	0.832	1.01
NCI-H322M	0.607	0.542	0.639	0.454	0.363	0.781	0.73	0.766	0.922	0.818	0.99	0.889	0.725	0.497	0.298	0.908	0.997	1.01	0.999	1.01
NCI-H520	0.666	0.32	0.204	0.179	0.189	0.918	1.03	0.909	0.859	0.829	0.902	0.737	0.61	0.238	0.225	0.869	1.03	0.991	1.03	0.947
NCI-H1666	0.822	0.881	0.831	0.543	0.57	0.951	0.957	1.02	0.911	1.01	0.945	0.959	0.9	0.466	0.377	0.957	0.992	0.959	0.845	1.11
NCI-H1993	0.64	0.569	0.421	0.393	0.435	0.706	0.65	0.62	0.655	0.664	1.04	0.793	0.543	0.684	0.587	0.827	0.981	0.942	0.89	1.09
NCI-H1975	0.297	0.276	0.22	0.169	0.168	0.569	0.691	0.592	0.622	0.665	0.859	0.975	0.612	0.207	0.159	0.963	0.942	0.954	0.931	1.02
HCC-44	0.738	0.612	0.651	0.38	0.246	0.771	0.854	0.76	0.789	0.809	1.01	0.996	0.31	0.155	0.129	1	1.04	0.96	0.969	1.07
